In US11820754B2, “Polymorphs of an SSAO inhibitor” (Eli Lilly and Company, priority 2020, dated 2023):

Test: Competitive slurry study (Form I vs Form II, XRPD of wet cake)
Type: physicochemical
Details: for XRPD Pattern (wet cake): 800 rpm
Method: XRPD analyses were performed with techniques and equipments known in the art with Cu K-alpha radiation.
Competitive slurry experiments were performed at 25° C. and 50° C. Saturated solutions of Form I in ACN and acetone at 25° C. and 50° C. were prepared. About 15 mg of Form I and Form II were weighted into the solutions respectively, and the suspensions were slurried for 1 or 3 days at 800 rpm.

SMILES	Conversion of form mixture in slurry, as determined by XRPD (25 °C and 50 °C, ACN and acetone, slurried 1 or 3 days)	XRPD Pattern (wet cake) (ACN, 25 °C, slurry time 1 day)	XRPD Pattern (wet cake) (ACN, 25 °C, slurry time 3 days)	XRPD Pattern (wet cake) (ACN, 50 °C, slurry time 1 day)	XRPD Pattern (wet cake) (Acetone, 25 °C, slurry time 1 day)	XRPD Pattern (wet cake) (Acetone, 50 °C, slurry time 1 day)	XRPD Pattern (wet cake) (Acetone, 50 °C, slurry time 3 days)	Relative thermodynamic stability of polymorphic forms (versus Form I, at a temperature of 50 °C or below)
COC1CCN(c2ncc(OC/C(=C/F)CN)cn2)CC1.Cc1ccc(S(=O)(=O)O)cc1 [Form I + Form II]	completely converted to Form II	Form I + Form II	Form II	Form II	Form II	Form I + Form II	Form II	–
COC1CCN(c2ncc(OC/C(=C/F)CN)cn2)CC1.Cc1ccc(S(=O)(=O)O)cc1 [Form II, (2E)-3-fluoro-2-({[2-(4-methoxypiperidin-1-yl)pyrimidin-5-yl]oxy}methyl)prop-2-en-1-aminium 4-methylbenzenesulfonate]	–	–	–	–	–	–	–	more thermodynamically stable
